Measured values: patent US11844823B2, “Beta-hairpin peptidomimetic with elastase inhibitory activity and aerosol dosage forms thereof” (POLYPHOR AG, priority 2016, dated 2023)
Non-standard residues stand in square brackets, D forms with d. Residues, ends and D or L forms follow the SMILES beside them. Gly(octyl) = CCCCCCCC[C@H](N)C(=O)O

Experiments:
rats = experiment: GLP-compliant 28-day inhalation toxicity study in rats; type: in vivo, rat
Method: In a GLP-compliant 28-day inhalation toxicity study in rats, conducted by Charles River Laboratories Preclinical Services, Tranent, Edinburgh, UK, the formulation described in Example 2 and dilutions thereof as well as the vehicle were administered using the Pari eFlow® XL 30 nebulizer device (Pari Pharma, Starnberg, Germany) for 100 min per day for 28 days, followed by a 2-week recovery period. […] Ten animals were used for the main toxicity study, and 5 additional animals for the recovery phase. Parameters assessed included clinical signs, body weights, food consumption, ophthalmic examination, clinical pathology, gross necropsy findings, organ weights and histopathologic examinations. […] This was associated with reduction in food consumption in treated animals. There was a good recovery in body weight gain during the recovery period between day 28 and 42.
These changes resolved during the recovery period and were considered a non-adverse, adaptive response to mild irritation. […] This slight increase in macrophage accumulation was considered a nonspecific response to the inhalation of high concentrations of material exceeding the clearance capacity of the lung.

neutrophil elastase = experiment: LPS/fMLP model of neutrophil activation in the rat, inhalation; neutrophil elastase activity in BAL supernatant; type: in vivo; settings: for NE activity in BAL fluid: mean ± s.e.m., vehicle 0.25 ± 0.02, p < 0.0001
Method: The purpose of this study (conducted by Envigo CRS Limited, Alconbury, Huntingdon, United Kingdom) was to evaluate the effects of acetate salt of cyclo(-OctG-Glu-Thr-Ala-Ser-Ile-Pro-Pro-Gln-Lys-Tyr-^DPro-Pro-) administered by inhalation in a LPS/fMLP model of neutrophil activation in the rat.
Animals were challenged with aerosolized LPS (lipopolysaccharide, 1 mg/mL) for 30 min. Approximately 3 h following end of LPS challenge, animals were administered either vehicle or formulations as described above of acetate salt of cyclo(-OctG-Glu-Thr-Ala-Ser-Ile-Pro-Pro-Gln-Lys-Tyr-^DPro-Pro-) by inhalation (Groups 1-4) over a 30 min period using an eFlow® 30 XL electronic nebulizer (Pari Pharma GmbH, Starnberg, Germany; snout only exposure). All animals were dosed with fMLP (N-formyl-Met-Leu-Phe, 5 mg/kg) approximately 4 h post completion of the LPS challenge via the intratracheal route under transient gaseous anaesthesia at a dose volume of 1 mL/kg. Approximately 2 h after fMLP administration, animals were terminated and a bronchoalveolar lavage (BAL) was performed to evaluate inflammatory cell infiltrate and neutrophil elastase activity.
Following confirmation of death, the trachea of an animal was isolated, the tracheal cannula inserted and secured in place, and the airway was lavaged with 3 mL of phosphate buffered saline (PBS). The lavage was repeated twice and in total, three lots of 3 mL of PBS were used. The first lavage aliquot containing cells was placed into a 15 mL centrifuge tube on wet ice (Tube A). The BAL fluid pooled from the second two lavages was placed into a second tube (Tube B). Tube A and B were placed on wet ice until centrifuged. Centrifugation was performed at 800×g for 10 min at ca. 4° C. and the supernantant was harvested. Until neutrophil elastase analysis supernantant was stored at ca. […].
The two aliquots of BAL supernatant were analyzed for neutrophil elastase activity as follows: 120 μl of BAL supernatant from aliquot 1 was transferred to a 96 well plate (Corning #3650). In parallel, a dilution range from 1.6 to 0.025 mU/well of a commercial human neutrophil elastase (hNE, Serva #20927.01) was prepared. 120 μl of each hNE dilution were transferred in duplicate to the 96-well plate. To start the enzymatic reaction, 80 μl of a fluorescent peptide substrate (MeOSuc-Ala-Ala-Pro-Val-AMC) at a final concentration of 500 μM was added to each well and the plate was immediately placed in the victor2v fluorescent reader pre-warmed at 37° C. Fluorescence (λexc. 485 nm, λem. 535 nm) was recorded for 2 h at 37° C. Enzyme initial velocity (RFU/min) of all samples was calculated and converted in mU/mL hNE equivalent, using the linear regression equation obtained from the plot (RFU/min vs mU/mL of hNE dilution) of the human neutrophil elastase standard range. The assay was repeated using BAL supernatant from aliquot 2. The neutrophil elastase data reported is a mean of the neutrophil elastase activity from both aliquots.

[1] = tested on: patients with cystic fibrosis; experiment: Phase-1b single ascending dose study in patients with cystic fibrosis, safety and tolerability; type: in vivo, human
Source text: In this randomised, double-blind, placebo-controlled, parallel-group (per dose level) dose-escalation study, the safety and tolerability of single ascending doses (SAD) of acetate salt of cyclo(-OctG-Glu-Thr-Ala-Ser-Ile-Pro-Pro-Gln-Lys-Tyr-^DPro-Pro-) administered by inhalation in patients with cystic fibrosis (CF) was investigated. Additionally, the pharmacokinetics of the drug following a single ascending dose in plasma and sputum as well as its pharmacodynamic effect on neutrophil elastase activity in sputum were evaluated.
In this study, conducted by Inamed GmbH, Gauting, Germany, 24 subjects with cystic fibrosis, who fulfilled all the inclusion criteria and in whom no exclusion criterion was present, were included and received randomised treatment. They were grouped into 3 dose groups of 8 subjects each. 6 subjects received the formulation described in Example 1 and dilutions thereof and 2 subjects received placebo (0.5% [w/w] aqueous sodium chloride solution adjusted to pH 5.5 with 1 M HCl pharmaceutical grade). The oral inhalation of the above formulation as well as the placebo occurred via the Pari eFlow® XL 30 nebulizer device (Pari Pharma GmbH, Starnberg, Germany). The dose levels and corresponding concentrations of cyclo(-OctG-Glu-Thr-Ala-Ser-Ile-Pro-Pro-Gln-Lys-Tyr-^DPro-Pro-) (active compound) are summarized in Table 14.
The volume of placebo nebulizer solution corresponded to that of the active compound at a particular dose level. The duration of inhalation was estimated to be between 7 and 20 min. Adverse events were tabulated and summarized according to the current version of Medical Dictionary for Regulatory Activities.

## CCCCCCCC[C@@H]1NC(=O)[C@@H]2CCCN2C(=O)[C@H]2CCCN2C(=O)[C@H](Cc2ccc(O)cc2)NC(=O)[C@H](CCCCN)NC(=O)[C@H](CCC(N)=O)NC(=O)[C@@H]2CCCN2C(=O)[C@@H]2CCCN2C(=O)[C@H]([C@@H](C)CC)NC(=O)[C@H](CO)NC(=O)[C@H](C)NC(=O)[C@H]([C@@H](C)O)NC(=O)[C@H](CCC(=O)O)NC1=O [cyclo(-OctG-Glu-Thr-Ala-Ser-Ile-Pro-Pro-Gln-Lys-Tyr-^DPro-Pro-)] (cyclo([Gly(octyl)]ETASIPPQKY[dP]P))
rats; rat, 11, 53 and 119 mg/kg/day
  clinical signs or ophthalmic findings: no clinical signs or ophthalmic findings
rats; rat, in vivo
  histopathology of the larynx: focal minimal squamous metaplasia without cellular atypia of dysplasia
  organ weights or gross findings: no treatment-related changes
rats; rat, haematology, coagulation, clinical chemistry, urinalysis
  clinical pathology findings considered toxicologically relevant: no findings
Neutrophil elastase; 0.3 mg/kg inhalation
  NE activity in BAL fluid: 0.10 ± 0.01 mU/mL eq.
Neutrophil elastase; 3 mg/kg inhalation
  NE activity in BAL fluid: 0.11 ± 0.01 mU/mL eq.
Neutrophil elastase; 30 mg/kg inhalation
  NE activity in BAL fluid: 0.07 ± 0.01 mU/mL eq.
Neutrophil elastase; 0.3, 3 and 30 mg/kg by inhalation 3 h post LPS, 1 h prior to fMLP, BAL 6 h post LPS
  effect on neutrophil elastase activity in BAL fluid: significantly inhibited
Neutrophil elastase; rat, inhalation 0.3-30 mg/kg
  clinical signs between dosing and study termination: No test item related clinical signs
[1]; CF patients, single inhaled doses 80, 160, 320 mg
  death, serious and other significant adverse events: No death, no serious adverse events (AE) and no other significant AE
[1]; human, in vivo
  TEAEs rated as severe: None
  causal relationship of TEAEs to active compound: not related
  total number of AEs (all TEAEs): 6
